The text below walks through data of US20040019118A1, “NMDA receptor antagonists and their use in inhibiting abnormal hyperphosphorylation of microtubule associated protein tau” (priority 2002, published 2004).

“Also recorded” adds a separate entry of the source. Read-outs that look alike come from different tables or passages of the source.

Series [1] concerns tau phosphorylated at Ser-262. The series can be described thus: Immunohistochemical staining of tau phosphorylated at Ser 262 in cultured hippocampal slices. In kind it is cell-based, rat. The settings on record: 100 nM OA 24 h. The protocol:
(§1) Organotypic cultures of rat hippocampal slices were prepared from 20-30 day old Wistar rats and cultured with the interface method as described previously (Stoppini, et al. 1991; Bahr, et al. 1995; Zhongrin, et al. 2000). The rats were anesthetized with ketamine (100 mg/kg body weight) and decapitated and the hippocampi were dissected out and sliced into 400 um coronal sections by a McIllwain tissue chopper. Select slices with uninterrupted bright transparent neuronal layers were plated, 1-3 slices/filter, onto Millicell CM filters (Millipore, Bedford, Mass.). For the first 2 days in vitro (DIV) cultures were maintained in 25% horse serum, 50% Basal Media-Eagle (BEM), 25% Eagle's Balanced Salt Solution (EBSS), 25 mM HEPES, 1 mM glutamine, 28 mM glucose, pH 7.2, at 32° C. in a 5% CO2 humidified atmosphere. The slice cultures were then switched to 25% horse serum, 50% BEM and EBSS modified so that the potassium concentration was 2.66 mM, for another 5 DIV. […]
After different treatments some of the hippocampal slices were fixed in periodate/lysine/paraformaldehyde solution (Mclean, et al. 1974) at 33° C. for 5 h and then kept in 1% Triton-x-100 in PBS (pH 7.4) for 72 h at room temperature to improve the penetration of the antibodies. […] Peroxidase was detected using 0.05% diaminobenzidine (DAB) and H2O2 (0.01%) for 10 min.

Another series has as its system GSK-3. The series can be described thus: GSK-3 activity in extracts of treated hippocampal slice cultures. In kind it is cell-based, rat. Here is the method: as §1, with “DIV. After 7 DIV, the cultures were maintained in physiological potassium containing 5% horse serum medium at 35° C. for at least 20 days before any treatment was applied. When the slices were treated, the reagents were applied into the culture medium.” for “DIV.”

Another series relates to cdk5. As to the kind of experiment: cdk5 activity in extracts of treated hippocampal slice cultures. Format: cell-based, rat. The protocol: as §1, with “DIV. After 7 DIV, the cultures were maintained in physiological potassium containing 5% horse serum medium at 35° C. for at least 20 days before any treatment was applied. When the slices were treated, the reagents were applied into the culture medium.” for “DIV.”

Another series concerns the target T1, PP-2A (Rattus norvegicus, UniProt P63331).
T1 construct: from tissue; host or cells: organotypic culture of adult rat hippocampal slices; 16,000xg extract
As to the kind of experiment: PP-2A activity in extracts of treated hippocampal slice cultures. In kind it is cell-based. Here is the method:
(§2) Organotypic cultures of rat hippocampal slices were prepared from 20-30 day old Wistar rats and cultured with the interface method as described previously (Stoppini, et al. 1991; Bahr, et al. 1995; Zhongrin, et al. 2000). The rats were anesthetized with ketamine (100 mg/kg body weight) and decapitated and the hippocampi were dissected out and sliced into 400 um coronal sections by a McIllwain tissue chopper. Select slices with uninterrupted bright transparent neuronal layers were plated, 1-3 slices/filter, onto Millicell CM filters (Millipore, Bedford, Mass.). For the first 2 days in vitro (DIV) cultures were maintained in 25% horse serum, 50% Basal Media-Eagle (BEM), 25% Eagle's Balanced Salt Solution (EBSS), 25 mM HEPES, 1 mM glutamine, 28 mM glucose, pH 7.2, at 32° C. in a 5% CO2 humidified atmosphere. The slice cultures were then switched to 25% horse serum, 50% BEM and EBSS modified so that the potassium concentration was 2.66 mM, for another 5 DIV. After 7 DIV, the cultures were maintained in physiological potassium containing 5% horse serum medium at 35° C. for at least 20 days before any treatment was applied. When the slices were treated, the reagents were applied into the culture medium. At different time points, the slices collected with a brush were washed twice in homogenizing buffer (50 mM HEPES, pH 7.0, 10 mM β-merceptoethanol [BME], 1 mM EDTA, 1 mM EGTA, 0.1 mM phenylmethyl sulfonyl fluoride [PMSF], 2.0 mM benzamidine and 2.0 μg/ml each of aprotinin, leupeptin and pepstatin) and homogenized at 4° C. using a Teflon-glass homogenizer. The homogenate was then divided into two parts, one was centrifuged at 16000×g for 15 min and the supernatant was used to assay activities of PP-2A and PP-1. The rest of the homogenate was diluted 1:1 with a phosphatase inhibitor cocktail (20 mM β-glycerophosphate, 2 mM Na3VO4 and 100 mM NaF, pH 7.0) and either used for Western blots or centrifuged at 16000×g for 15 min and the resulting supernatant used to determine the kinase activities.
Activities of PP-2A and PP-1 were assayed towards [^32P] phosphorylase-a as a substrate as described previously (Gong, et al. 1994). The phosphatase activity was assayed in 20 μl of reaction mixture containing 50 mM Tris, pH 7.0, 10 mM BME, 0.1 mM EDTA, 7.5 mM caffeine, 7.5 ng/μl [^32P]phosphorylase-a and 0.06 mg/ml slice culture extract. The reaction was started by adding ^32P-phosphorylase-a. After incubation for 30 min at 30° C., 7 μl of the reaction mixture was spotted on to 31 ETCHR chromatography paper which had been prespotted with 10 μl stop solution (4 mM ATP+20% TCA). Then the ^32p released was separated from the protein-incorporated ^32P by paper chromatography in 5% TCA and 0.2 M NaCl, paper strips dried, cut and counted by Cerenkov radiation. A PP-1 specific inhibitor, inhibitor-1 (Hitken, et al. 1982) was included in the assays for PP-2A activity. PP-1 activity was calculated by subtracting the PP-2A activity from the total phosphorylase-a phosphatase activity (PP-1/PP-2A) assayed in the absence of inhibitor-1.

Another series concerns NF-H/M. The series can be described thus: 125I-Western blots of phosphorylated NF-H/M in slice homogenates. In kind it is cell-based, rat. The protocol: as §1
The phosphorylation of tau at Ser 262 and the levels of MAP2 and phosphorylated NF-H/M were assayed by ^125I-Western blots. […] Both immuno-dot-blots and Western blots were developed with ^125I-radiolabeled secondary antibodies and radioimmunoreactivity was visualized and quantitated using a phosphorimager (Fujifilm BAS-1500) and TINA 2.0 software (Raytest Isotopenmessgeräte GmbH)

The test system of series [2] is hippocampal slices in culture. The series can be described thus: Cell death by LDH activity released into the culture medium. Format: cell-based, rat. The protocol: as §2
The LDH released into the culture medium from the slices was determined calorimetrically using Cytotox 96R Non-Radioactive Cytotoxicity Assay Kit (Promega, Madison, Wis.) according to the manufacturer's protocol. The assay was carried out in 96-well microplates, and the results were read by a kinetic microplate reader (Molecular Devices) at a wavelength of 490 nm. Protein concentrations were assayed by the modified Lowry method (Bensadoun and Weinstein, 1976).

The mark [3] stands for this setting: Memantine in OA-treated cultures.

T1 sequence (P63331 whole entry): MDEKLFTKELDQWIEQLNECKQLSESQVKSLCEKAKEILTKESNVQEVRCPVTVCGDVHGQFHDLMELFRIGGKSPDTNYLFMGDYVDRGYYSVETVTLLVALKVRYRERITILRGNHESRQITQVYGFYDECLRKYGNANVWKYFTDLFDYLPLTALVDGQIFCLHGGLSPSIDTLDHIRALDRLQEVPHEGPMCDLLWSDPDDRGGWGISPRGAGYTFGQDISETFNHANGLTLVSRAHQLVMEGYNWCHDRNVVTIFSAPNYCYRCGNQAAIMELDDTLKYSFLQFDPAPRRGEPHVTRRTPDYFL

One may read the inhibition as the change of the read-out against control, counted positive when it falls. Take `C=C1[C@@H](O)[C@@H]2O[C@]3(CC[C@H](/C=C/[C@@H](C)[C@@H]4CC(C)=C[C@@]5(O[C@H](C[C@@](C)(O)C(=O)O)CC[C@H]5O)O4)O3)CC[C@H]2O[C@@H]1[C@@H](O)C[C@H](C)[C@H]1O[C@@]2(CCCCO2)CC[C@H]1C` [OA, Okadaic Acid]: in series [1] (then medium 24 h), the “pS262 positive cells / p-Ser-262 staining” value is recorded as “increased markedly; also recorded: marked increase”. The “change in GSK-3 activity” value in the series on GSK-3 (OA-treated slice cultures) is listed as “no significant change; also recorded: neither OA nor Memantine had any significant effect; also recorded: no significant alteration”. For the same compound, in the series on cdk5 (OA-treated slice cultures), the “change in cdk5 activity” value is on record as “no significant change; also recorded: neither OA nor Memantine had any significant effect; also recorded: no significant alteration”. Further, the “inhibition (decrease) of PP-2A activity” value on PP-2A (100 nM OA, 24 h) is reported as ~40%; against PP-2A (1000 nM (1 μM) OA, 48 h, 1 µM) it was ~75%. Moreover, the inhibition at 0.1 µM on PP-2A (read-out: inhibition (decrease) of PP-2A activity, 100 nM OA, 24 h) was 42%. Moreover, the inhibition at 1 µM at PP-2A (read-out: inhibition (decrease) of PP-2A activity, 1000 nM (1 μM) OA, 48 h) was 78%; on PP-2A (read-out: inhibition of PP-2A activity, 1 μM OA, 24 h), ~65%. The inhibition at 0.01 µM on PP-2A (read-out: inhibition of PP-2A activity, 10 nM OA, 24 h) is ~20%. For the same compound, the “phosphorylated NF-H/M level” value in the series with NF-H/M (OA-treated cultures) was “increase in phosphorylated NF-H/M”. The “cell death (LDH activity released in the medium)” value in series [2] (OA up to 1 μM, up to 48 h) was “increased with increase in OA concentration and treatment period; also recorded: markedly increased; also recorded: several-fold increase”.
`CC12CC3CC(C)(C1)CC(N)(C3)C2` [Memantine, 1-amino-3,5-dimethyl adamantane]: the “pS262 positive cells / p-Ser-262 immunostaining” value in series [1] (then 10 μM Memantine 24 h) is on record as “decreased dramatically; also recorded: markedly decreased; also recorded: restored in large part”. In the series with GSK-3 (setting [3]), the “effect on GSK-3 activity” value is recorded as “neither OA nor Memantine had any significant effect; also recorded: no significant effect”. Moreover, in the series on cdk5 (setting [3]), the “effect on cdk5 activity” value is recorded as “neither OA nor Memantine had any significant effect; also recorded: no significant effect”. Besides, the “restoration of OA-inhibited PP-2A activity” value on PP-2A (100 nM OA and 1, 10 or 30 μM Memantine, 3-48 h (FIG. 2a), p<0.02) is “restored the OA-inhibited PP-2A activity to normal level”; at PP-2A (100 nM OA, 10 μM Memantine, 24 h), “practically completely restored; also recorded: restored the OA-induced changes in the activities of PP-2A, CaMKII and PKA to normal levels”; on PP-2A (5 μM compound), “restoration”. In addition, the “restoration of PP-2A activity” value on PP-2A (100 nM OA plus 10 μM Memantine 24 h, or OA 24 h, wash, then Memantine 24 h) was “restored the PP-2A activity to normal level; also recorded: almost completely restored; also recorded: restored the activities of both PP-2A and CaMKII”. For the same compound, the “additional effect on restoration of PP-2A activity” value on PP-2A (Memantine 10 to 30 μM, or 24 h to 48 h) is on record as “Neither increase of Memantine from 10 μM to 30 μM nor duration of the treatment from 24 h to 48 h resulted in any significant additional effect”. Moreover, the “concentration giving full effect on restoration of PP-2A activity” value on PP-2A (OA-treated slices) worked out at 10 µM. In addition, at PP-2A (OA-treated slices), the “lowest concentration at which restoration of PP-2A activity was observed” value is 1 µM. For the same compound, the “effect on PP-2A activity” value on PP-2A (after 0.3 mM glutamate 1 h, 10 μM Memantine or 15 μM MK801) was “no effect”. In addition, the “effect on PP-2A activity in control (untreated) slices” value on PP-2A (no OA) is “no significant effect”. Further, in the series with NF-H/M (OA plus/then Memantine), the “phosphorylated NF-H/M level” value is “reversed the OA-induced increase in phosphorylated NF-H/M; also recorded: reversal of phosphorylation and accumulation of NF-H/M subunits; also recorded: reversed the hyperphosphorylation of NF-H/M”. In addition, the “concentration (as low as) that completely inhibited OA-induced cell death” value in series [2] (100 nM OA, p<0.001 (FIG. 2d)) amounted to 1 µM. Moreover, the “inhibition of OA-induced cell death” value in series [2] (10 μM Memantine) is given as “completely inhibited”. For the same compound, the “effect on LDH activity in the medium of control cultures” value in series [2] (1-30 μM Memantine, no OA) is recorded as “no effect”. Besides, the “lowest concentration with significant/detectable inhibition of OA-induced cell death” value in series [2] (OA-treated slices) is 1 µM.
